# Experimental data as given in article PMC5675407, “Sugar analog synthesis by in vitro biocatalytic cascade: A comparison of alternative enzyme complements for dihydroxyacetone phosphate production as a precursor to rare chiral sugar synthesis” (PLoS ONE, 2017).
# Target: T1, FruASc (Staphylococcus carnosus, UniProt Q07159)
# T1 construct: gene fda; recombinant from pETScFruA, E. coli
# Assay: LC-MS of aldol product in enzyme cascade
# Assay type: biochemical
# Conditions: DHAP made in situ; acetaldehyde or glyceraldehyde-3-phosphate 10 mM, pH 7.9, 22 °C
# T1 sequence (Q07159 2-296): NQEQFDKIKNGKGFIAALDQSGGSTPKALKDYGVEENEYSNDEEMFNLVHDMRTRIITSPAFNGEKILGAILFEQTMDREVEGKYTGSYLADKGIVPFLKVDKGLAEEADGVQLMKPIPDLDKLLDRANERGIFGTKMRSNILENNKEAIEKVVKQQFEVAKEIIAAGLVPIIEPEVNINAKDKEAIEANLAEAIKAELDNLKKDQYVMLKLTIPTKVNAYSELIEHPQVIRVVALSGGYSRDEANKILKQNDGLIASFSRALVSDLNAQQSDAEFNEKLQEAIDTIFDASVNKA
structure (smiles),measurement,value
O=C(CO)COP(=O)(O)O [DHAP],LC-MS of aldol product in enzyme cascade,"as DHAP was consumed by the aldolase reaction, greater conversion to DHAP occurred"
